These results are taken from patent publication US20220389009A1, “SUBSTITUTED 1,6-NAPHTHYRIDINE INHIBITORS OF CDK5” (Goldfinch Bio, Inc., priority 2019, published 2022).

For assay [1], the target named is CDK5/p25 (Homo sapiens, UniProt Q00535). Put plainly: CDK5 mobility shift assay (enzymatic activity of CDK5/p25). It is filed as biochemical. As to conditions: for IC50: 0.154 nM CDK5/p25, FL peptide 29, 60 min at room temperature, read-out: CDK5 IC50; for CDK5/CDK2 specificity: fold more active against CDK5 than CDK2. In outline: (§1)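 Phosphorylation of 1.5 μM fluorescent peptide was read by microfluidic mobility shift and fitted to IC50 (4-parameter), normalized to no-compound and no-enzyme controls. CDK5/p25 ran at 0.154 nM with […] ATP for 60 min, using peptide 29. CDK2/CycA2 ran at 1.25 nM with 37 μM ATP for 120 min, using peptide 18. Both included a 30-min compound preincubation in pH 7.5 buffer.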
CDK5/p25, sequence (Q00535 whole entry): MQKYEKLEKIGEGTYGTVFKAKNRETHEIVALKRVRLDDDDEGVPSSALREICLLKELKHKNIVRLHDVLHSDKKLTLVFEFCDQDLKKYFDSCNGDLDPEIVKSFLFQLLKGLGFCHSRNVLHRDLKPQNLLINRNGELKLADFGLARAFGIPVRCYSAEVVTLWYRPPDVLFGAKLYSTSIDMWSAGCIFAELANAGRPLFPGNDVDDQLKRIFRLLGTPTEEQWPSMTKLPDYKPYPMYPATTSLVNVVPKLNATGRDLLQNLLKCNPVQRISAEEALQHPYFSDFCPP
CDK5/p25, sequence (Q15078 99-307 partner limits assumed): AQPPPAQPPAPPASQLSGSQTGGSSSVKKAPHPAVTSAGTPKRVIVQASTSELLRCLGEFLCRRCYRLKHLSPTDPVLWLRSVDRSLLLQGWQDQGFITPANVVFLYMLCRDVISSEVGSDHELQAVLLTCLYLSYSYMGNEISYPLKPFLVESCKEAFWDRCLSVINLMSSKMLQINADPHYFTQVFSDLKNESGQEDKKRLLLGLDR

The target in assay [2] is CDK2/CycA2 (Homo sapiens, UniProt P24941). Put plainly: CDK2 mobility shift assay (enzymatic activity of CDK2/CycA2). The conditions noted are these: 1.25 nM CDK2/CycA2, 37 μM ATP, FL Peptide 18, 120 min at room temperature; read-out: CDK2 IC50. It is filed as biochemical. In outline:
as §1

As to `CN1CCC([C@@](C)(O)c2ccc3cnc(Nc4ccc(-n5cc(C(=O)O)cn5)cc4F)cc3n2)CC1` [Compound 362, 1-[3-fluoro-4-([2-[(1R)-1-hydroxy-1-(1-methylpiperidin-4-yl)ethyl]-1,6-naphthyridin-7-yl]amino)phenyl]pyrazole-4-carboxylic acid], the half-maximal inhibitory concentration (IC50) was under 10 nM in assay [1] and 10 to 100 nM in assay [2]. For the same compound, the CDK5/CDK2 specificity entry in assay [1] is “++ (greater than 10-fold and less than or equal to 100-fold more active against CDK5 than CDK2)”.

As for `CN1CCC([C@@](C)(O)c2ccc3cnc(Nc4ccc(-c5cccc(C(N)=O)c5)cc4F)cc3n2)CC1` [Compound 364, (R)-3′-fluoro-4′-((2-(1-hydroxy-1-(1-methylpiperidin-4-yl)ethyl)-1,6-naphthyridin-7-yl)amino)-[1,1′-biphenyl]-3-carboxamide], in assay [1], the IC50 was under 10 nM; the CDK5/CDK2 specificity entry was “++ (greater than 10-fold and less than or equal to 100-fold more active against CDK5 than CDK2)”. The IC50 in assay [2] fell in the range of 10 to 100 nM.

For `CN1CCC(C2(c3ccc4cnc(Nc5ccc(-n6cccn6)cc5F)cc4n3)CCO2)CC1` (stereo not drawn) [Compound 365, N-(2-fluoro-4-(1H-pyrazol-1-yl)phenyl)-2-(2-(1-methylpiperidin-4-yl)oxetan-2-yl)-1,6-naphthyridin-7-amine], in assay [1], the half-maximal inhibitory concentration (IC50) lay in the range of 10 to 100 nM; the CDK5/CDK2 specificity entry was “++ (greater than 10-fold and less than or equal to 100-fold more active against CDK5 than CDK2)”. For the same compound, the IC50 in assay [2] was in the range of 100 to 1000 nM.

`COC(=O)c1cnn(-c2ccc(Nc3cc4nc([C@](C)(O)C5CCN(C)CC5)ccc4cn3)c(F)c2)c1` [Compound 367, methyl 1-[3-fluoro-4-([2-[(1R)-1-hydroxy-1-(1-methylpiperidin-4-yl)ethyl]-1,6-naphthyridin-7-yl]amino)phenyl]pyrazole-4-carboxylate]: the figures for the IC50 in assay [1] and in assay [2] were under 10 nM and 10 to 100 nM, respectively. The CDK5/CDK2 specificity entry in assay [1] is “++ (greater than 10-fold and less than or equal to 100-fold more active against CDK5 than CDK2)”.

Take `CN1CCC(C(C)(O)c2ccc3cnc(Nc4ccc(S(C)(=O)=O)cc4)cc3n2)CC1` (stereo not drawn) [Compound 370]: in assay [1], the IC50 was under 10 nM and the CDK5/CDK2 specificity entry is given as “+ (10-fold or less more active against CDK5 than CDK2)”. In assay [2], the IC50 was under 10 nM.

Regarding `CN1CCC(C(C)(O)c2ccc3cnc(Nc4ccc(-n5ccc(C#N)n5)cc4F)cc3n2)CC1` (stereo not drawn) [Compound 371], in assay [1], the IC50 was under 10 nM; the CDK5/CDK2 specificity entry is “++ (greater than 10-fold and less than or equal to 100-fold more active against CDK5 than CDK2)”. Besides, the IC50 in assay [2] fell in the range of 100 to 1000 nM.

Regarding `CN1CCC(C(C)(O)c2ccc3cnc(Nc4cccc(C(N)=O)c4)cc3n2)CC1` (stereo not drawn) [Compound 372], in assay [1], the IC50 is under 10 nM; the CDK5/CDK2 specificity result was “++ (greater than 10-fold and less than or equal to 100-fold more active against CDK5 than CDK2)”. Further, in assay [2], the IC50 was under 10 nM.

As for `CCc1cccc(Nc2cc3nc(C(C)(O)C4CCN(C)CC4)ccc3cn2)c1` (stereo not drawn) [Compound 373], in assay [1], the IC50 is under 10 nM; the CDK5/CDK2 specificity entry was “++ (greater than 10-fold and less than or equal to 100-fold more active against CDK5 than CDK2)”. In assay [2], the IC50 was in the range of 10 to 100 nM.

`CN1CCC(/C(=N\O)c2ccc3cnc(Nc4ccc(-n5cccn5)cc4F)cc3n2)CC1` [Compound 375]: in assay [1], the IC50 is under 10 nM; the CDK5/CDK2 specificity result is “++ (greater than 10-fold and less than or equal to 100-fold more active against CDK5 than CDK2)”. For the same compound, in assay [2], the IC50 was 10 to 100 nM.

On to `CN1CCC(S(=O)(=O)c2ccc3cnc(Nc4ccc(-c5ncon5)cc4F)cc3n2)CC1` [Compound 376], for which, in assay [1], the IC50 was in the range of 100 to 1000 nM and the CDK5/CDK2 specificity entry is reported as “+ (10-fold or less more active against CDK5 than CDK2)”. In addition, in assay [2], the IC50 lay within 100 to 1000 nM.

As for `CN1CCC(S(=O)(=O)c2ccc3cnc(Nc4ccc(-c5cccn(C)c5=O)cc4F)cc3n2)CC1` [Compound 378], in assay [1], the IC50 was in the range of 10 to 100 nM and the CDK5/CDK2 specificity entry is reported as “+++ (greater than 100-fold more active against CDK5 than CDK2)”. Further, the IC50 in assay [2] is over 1000 nM.

Regarding `CCc1ccc(F)c(Nc2cc3nc(S(=O)(=O)C4CCN(C)CC4)ccc3cn2)c1` [Compound 379], in assay [1], the IC50 is under 10 nM and the CDK5/CDK2 specificity result was “+++ (greater than 100-fold more active against CDK5 than CDK2)”. The IC50 in assay [2] lay in the range of 100 to 1000 nM.

Consider `CC(C)N1CCC(S(=O)(=O)c2ccc3cnc(Nc4ccc(-n5cccn5)cc4F)cc3n2)CC1` [Compound 380], for which, in assay [1], the IC50 was in the range of 10 to 100 nM; the CDK5/CDK2 specificity entry is “++ (greater than 10-fold and less than or equal to 100-fold more active against CDK5 than CDK2)”. Further, the IC50 in assay [2] is 100 to 1000 nM.

`CN1CCC(/C(=N/O)c2ccc3cnc(Nc4ccc(-n5cccn5)cc4F)cc3n2)CC1` [Compound 381]: the 50% inhibitory concentration (IC50) in assay [1] is 10 to 100 nM; in assay [2] it was 100 to 1000 nM. The CDK5/CDK2 specificity result in assay [1] is “+ (10-fold or less more active against CDK5 than CDK2)”.

On to `Cc1cccc(Nc2cc3nc(S(=O)(=O)C4CCN(C)CC4)ccc3cn2)c1` [Compound 382], for which, in assay [1], the IC50 is under 10 nM and the CDK5/CDK2 specificity result was “+++ (greater than 100-fold more active against CDK5 than CDK2)”. For the same compound, in assay [2], the IC50 is 10 to 100 nM.

As for `CN1CCC(C(C)(O)c2ccc3cnc(Nc4ccc(-c5ccc(=O)[nH]c5)cc4F)cc3n2)CC1` (stereo not drawn) [Compound 383], in assay [1], the IC50 was under 10 nM; the CDK5/CDK2 specificity result is “++ (greater than 10-fold and less than or equal to 100-fold more active against CDK5 than CDK2)”. Further, the IC50 in assay [2] is 10 to 100 nM.

As for `CCN1CCC(S(=O)(=O)c2ccc3cnc(Nc4ccc(-n5cccn5)cc4F)cc3n2)CC1` [Compound 384], in assay [1], the IC50 is under 10 nM and the CDK5/CDK2 specificity result was “+++ (greater than 100-fold more active against CDK5 than CDK2)”. Besides, the IC50 in assay [2] is 100 to 1000 nM.

Take `CN1CCC(S(=O)(=O)c2ccc3cnc(Nc4ccccc4)cc3n2)CC1` [Compound 385]: in assay [1], the IC50 was under 10 nM; the CDK5/CDK2 specificity entry is “++ (greater than 10-fold and less than or equal to 100-fold more active against CDK5 than CDK2)”. The IC50 in assay [2] was 10 to 100 nM.

As to `CC(c1ccc2cnc(Nc3ccc(-n4cccn4)cc3F)cc2n1)C1CCN(C)CC1` (stereo not drawn) [Compound 386], the IC50 was under 10 nM in assay [1] and 100 to 1000 nM in assay [2]. In assay [1], the CDK5/CDK2 specificity entry is “++ (greater than 10-fold and less than or equal to 100-fold more active against CDK5 than CDK2)”.

As to `CCC(O)(c1ccc2cnc(Nc3ccc(-n4cccn4)cc3F)cc2n1)C1CCN(C)CC1` (stereo not drawn) [Compound 389], in assay [1], the IC50 was over 1000 nM; the CDK5/CDK2 specificity entry was “++ (greater than 10-fold and less than or equal to 100-fold more active against CDK5 than CDK2)”. Also, the IC50 in assay [2] is over 1000 nM.

Take `Cc1ccc(F)c(Nc2cc3nc(C(O)(C4CCN(C)CC4)C(F)(F)F)ccc3cn2)c1` (stereo not drawn) [Compound 390]: in assay [1], the IC50 lay within 100 to 1000 nM; the CDK5/CDK2 specificity entry was “++ (greater than 10-fold and less than or equal to 100-fold more active against CDK5 than CDK2)”. In addition, in assay [2], the IC50 was over 1000 nM.

Consider `CCC(O)(c1ccc2cnc(Nc3ccc(-n4cccn4)cc3F)cc2n1)C1CCN(C)CC1` (stereo not drawn) [Compound 392], for which, in assay [1], the IC50 lay within 10 to 100 nM; the CDK5/CDK2 specificity result is “++ (greater than 10-fold and less than or equal to 100-fold more active against CDK5 than CDK2)”. In assay [2], the IC50 lay in the range of 100 to 1000 nM.

The term IC50 denotes the point on the concentration scale where inhibition reaches its midpoint.
